2 compounds from US20230145868A1, “UREA INHIBITORS OF MICRO-RNA” (Board of Regents, The University of Texas System, priority 2020, published 2023) can be followed below.

Experiment [1] relates to mature miR-10b. Put plainly: RT-qPCR of mature miR-10b. Type of experiment: cell-based, human. The note with it: normalized to U6, vs DMSO. The procedure: Potential small molecule miRNA inhibitors were tested in MCF7 cells, a metastatic cell line (MM231) and an HCC cell line (HepG2) through RT-qPCR. Cells were seeded in 12-well plates 24 h before treatments at a confluence of 50-60%. They were treated at a concentration of 10 μM linifanib (positive control) or DMSO (negative control), and RNA was collected after 24 and 48 h. MicroRNA expression was tested using TaqMan microRNA assay (Applied Biosystems). The cDNA was synthesized using TaqMan Reverse Transcription Reagents kit (Applied Biosystems) and employed for quantitative RT-qPCR analysis together with TaqMan probes and SsoFastSupermix (Bio-rad). Primers and probes were purchased for hsa-miR-10b, hsa-pri-miR-10b, U6, and U48 snRNA that was used as an internal control.
To detect the levels of the precursor sequences, cDNA was synthesized using the SuperScript III cDNA kit (Invitrogen). Diluted cDNA was used for RT-qPCR analysis using iQ SYBR Green Supermix (Bio-Rad) with primers designed by in-house. Experiments were performed in triplicate; treated samples were compared to the DMSO-treated controls and normalized to the internal control. Relative expression levels were calculated using the 2-ΔCt method.
On the technique in general: In qPCR the cycle at which signal appears reflects the starting amount.

Experiment [2] concerns miR-10b. Put plainly: Luciferase reporter assay of miR-10b inhibition, MDA-MB-231 cells. Type of experiment: cell-based. The note with it: Homo sapiens, MDA-MB-231, 48 h. An excerpt: To identify miR-10b inhibitors, a luciferase reporter system was designed with complementary oligonucleotides for miR-10b.This luciferase reporter would repress Renilla luciferase signal in the presence of a functional mature miR-10b. However, in the presence of a small molecule that can inhibit mature miR-10b expression or affect its downstream function, the luciferase expression is restored again.
The PsiCHECK™-2 luciferase reporter vector was acquired from Promega™, Complementary oligonucleotides for hsa-miR-10b were designed based on the mature miRNA sequence and obtained from Thermo Fisher Scientific. In the design of the microRNA target sequence, several base pairs were added to have two different restriction sites recognizable by the enzyme SgfI at one side, and PmeI on the other (present in the vector as well). In addition, the insert was designed with a restriction site for SacI enzyme in order to have an additional site to digest the vector when monitoring colonies for the presence/absence of the insert. The designed oligonucleotides were annealed as follows: Complementary strands were mixed at a 1:1 molar ratio in a micro centrifuge tube. The mixture was diluted to a final concentration of 1 pmol/μl with a buffer solution of 10 mM Tris, 1 mM EDTA, and 50 mM NaCl (pH 8.0). Mixes were incubated at 95° C. for 5 min, and then the heat was reduced gradually for 70 min, until reaching 4° C. The annealed oligonucleotides were digested along with the PsiCHECK™2 vector with SgfI and PmeI and ligated at the 3′-UTR (downstream) of the Renilla luciferase reporter gene in the PsiCHECK™-2vector. Insert sequences were further confirmed in two ways: enzymatic digestion and sequencing.
MCF7 cells were seeded 24 h prior to transfection in 96 well plates (2.0×10^4 cells/well). For testing the sensitivity of the assay, antagomiRs and pre-miRs against miR-10b were used at a final concentration of 100 nM. For testing small molecule miRNA inhibitors, the compounds of interest were added to a final concentration of 10 μM. The assay was done in MCF7 or MDA-MB-231 cells at approximately 60% confluence using Lipofectamine in Opti-Mem media with the final vector concentration of 250 ng/mL. All transfections were performed in triplicate for statistical analysis. The cells were incubated at 37° C. for 6 h, followed by replacement of the transfected media with fresh media. After 48 h incubation, the media was removed, and cells were lysed and assayed with a Dual Luciferase Assay Kit (Promega) using a Vi-Tech luminometer. The ratio of Renilla to firefly luciferase expression was calculated for each of the triplicates.
In general terms: In a reporter assay the amount or activity of a reporter protein is the signal.

For experiment [3], the system named is AsPC1 cell line. In words: Cell proliferation assay (WST-8 or MTS), AsPC1. Type of experiment: cell-based, human. The procedure: (§1) IC50 dose-response curves were determined using the cell proliferation assay system. Briefly, 5,000 or 10,000 cells of each cell line were plated in 96-well microculture plates in replicates of either 4 or 6. When cells became adherent, either 5 or 10 sequentially decreasing doses of the small molecule miRNA inhibitor were diluted into new media and added to individual wells. After either 24 or 48 hours, of a tetrazolium salt such as MTS, MTT, or WST-8 was added to each well at the same time of day as treatment and incubated for either 2 or 3 h at 37° C. The OD, measuring at the appropriate wavelength for the dye, was read at on a microplate spectrophotometer.
(§2) Cell proliferation is determined using a colorimetric assay. A tetrazolium salt such as MTS, MTT, or WST-8 is reduced by dehydrogenase activities in cells to give a formazan dye, which is soluble in the tissue culture media. The amount of the formazan dye (generated by the activities of dehydrogenases in cells, and directly proportional to the number of living cells) is measured after 3 h of incubation. The OD is read at 450 nm on a microplate spectrophotometer and growth values (%) are calculated as (OD treated cells/OD untreated cells)×100. The experiments are performed in triplicate. […] The OD is read at 450/550 nm on a microplate spectrophotometer, after one to seven days of the treatment. […]
A general note: Formazan colour is commonly taken as a measure of viable cells.

The subject of experiment [4] is proteins on the PI3K/AKT pathway. In words: Reverse phase protein array (RPPA), PI3K/AKT pathway. Type of experiment: cell-based, human. To be noted: U251; 10 μM (FIG. 23); p<0.01. The procedure:
Proteomics analysis was conducted at the Reverse Phase Protein Array Core facility at MD Anderson Cancer Center. Briefly, controls and treated samples were analyzed in triplicate for 486 unique antibodies. The outputs were then normalized for protein loading and transformed to the linear value, and the normalized data was logy transformed (log2(x+1)) and sorted by FDR-adjusted p-values with a significance level of p<0.05. Differentially expressed proteins between groups were identified using the moderated t-test from LIMMA package. […] Analyses and graphical representations were carried out in R. When preparing the data for analysis, the loge fold change was calculated and adjusted p-value was used for analysis. Gene symbols were converted using the DAVID bioinformatics resource and the clusterProfiler data visualization and analysis package was used for pathway enrichment analysis. For pathway analysis, the Hallmark gene set and Gene Ontology was used for gene set and pathway enrichment.

The subject of experiment [5] is LN229 cell line. In words: MTS proliferation assay, LN229. The note with it: 5 and 10 μM, beginning at 48 h of treatment. Type of experiment: cell-based, human. The procedure: as §1, §2
[6] abbreviates: Table 5, MDA-MB-231, 10 μM compound, vs negative control (DMSO), mean of triplicate, read-out: n-fold increase in luciferase expression, Mean.
Setting [7] is: Table 5, MDA-MB-231, 10 μM compound, vs negative control (DMSO), replicate #1, read-out: n-fold increase in luciferase expression, #1.
[8] abbreviates: Table 5, MDA-MB-231, 10 μM compound, vs negative control (DMSO), replicate #2, read-out: n-fold increase in luciferase expression, #2.
Where [9] appears, read: Table 5, MDA-MB-231, 10 μM compound, vs negative control (DMSO), replicate #3, read-out: n-fold increase in luciferase expression, #3.
Setting [10] is: Table 7, MDA-MB-231, second biological replicant, 10 μM compound, mean of triplicate, read-out: n-fold increase in luciferase expression, Mean.
Setting [11] is: Table 7, MDA-MB-231, second biological replicant, 10 μM compound, replicate #1, read-out: n-fold increase in luciferase expression, #1.
The mark [12] stands for this setting: Table 7, MDA-MB-231, second biological replicant, 10 μM compound, replicate #2, read-out: n-fold increase in luciferase expression, #2.
The mark [13] stands for this setting: Table 7, MDA-MB-231, second biological replicant, 10 μM compound, replicate #3, read-out: n-fold increase in luciferase expression, #3.

SMILES strings stand for the structures. Where two headings read alike, the source gives them in different places.

With `Cc1ccc(F)c(NC(=O)Nc2ccc(-c3cncnc3)cc2)c1` [Example 2, 1-(2-fluoro-5-methylphenyl)-3-(4-(pyrimidin-5-yl)phenyl)urea], the “level of mature miR-10b” value in experiment [1] (AGS gastric cell line) was “reduce the level of mature miR-10b”; in experiment [1] (AsPC1 pancreatic cell line), “reduces the level of mature miR-10b”. In addition, the fold induction at 10 µM in experiment [2] (setting [6]) turned out to be 1.58; in experiment [2] (setting [7]), 1.45; in experiment [2] (setting [8]), 1.9; in experiment [2] (setting [9]) it was 1.38; in experiment [2] (setting [10]) it was 2.13; in experiment [2] (setting [11]), 2.38. Moreover, the results for the fold induction at 10 µM in experiment [2] (setting [12]) and in experiment [2] (setting [13]) were 1.88 and 2.15, respectively. For the same compound, the proliferation entry in experiment [3] (10 μM, vs DMSO) was “reduced proliferation”.
Regarding `Cc1ccc(F)c(NC(=O)Nc2ccc(-c3cccc4cn[nH]c34)cc2)c1` [Example 4, 1-(4-(1H-indazol-7-yl)phenyl)-3-(2-fluoro-5-methylphenyl)urea], the “level of mature miR-10b” value in experiment [1] (AGS gastric cell line) and in experiment [1] (AsPC1 pancreatic cell line) was “reduces the level of mature miR-10b” throughout. Besides, the “expression of proteins on the PI3K/AKT pathway (RPPA)” value in experiment [4] is given as “ten of the twelve proteins showing significant downregulation”. Further, the fold induction at 10 µM in experiment [2] (setting [6]) was 1.43; in experiment [2] (setting [7]) it was 1.36; in experiment [2] (setting [8]) it was 1.7; in experiment [2] (setting [9]), 1.24; in experiment [2] (setting [10]), 1.55; in experiment [2] (setting [11]), 1.81. For the same compound, the fold induction at 10 µM in experiment [2] (setting [12]) came to 1.8; in experiment [2] (setting [13]), 1.05. The “proliferation (MTS), every 24 h over 96 h” value was “significant difference in proliferation” in experiment [5]; “significant difference in proliferation” in experiment [3] (5 and 10 μM, beginning at 48 h of treatment).
